Results on one compound are retold here after patent US9939427B2, “Method for evaluating the scent performance of perfumes or perfume mixtures” (Symrise AG, priority 2013, dated 2018).

What all share (format): cell-based
One experiment has as its target T1, OR4K2 (Homo sapiens, UniProt Q8NGD2).
T1 construct: specific primers, which amplify the complete open reading frame; expressed in transfected cells; host or cells: HEK293
T1 sequence (Q8NGD2 1-314): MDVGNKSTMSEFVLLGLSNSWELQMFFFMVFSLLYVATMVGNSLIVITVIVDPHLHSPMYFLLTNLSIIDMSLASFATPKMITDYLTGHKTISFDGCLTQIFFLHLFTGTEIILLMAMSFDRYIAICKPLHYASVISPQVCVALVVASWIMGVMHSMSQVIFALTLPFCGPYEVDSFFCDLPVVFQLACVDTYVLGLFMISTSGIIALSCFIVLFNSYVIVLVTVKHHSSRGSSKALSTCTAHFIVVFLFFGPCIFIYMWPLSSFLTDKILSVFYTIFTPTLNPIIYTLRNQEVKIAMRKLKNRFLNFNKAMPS
Nature of the experiment: Ca-imaging of OR4K2-transfected HEK293 cells. The arrangement: key to OR4K2 responded to odorant: ▪: 18 olfactory receptors responded to 32 odorants in related with specific anosmia. As for the experimental part:
(§1) HEK293 cells were cultivated in Petri dishes (Ø35 mm) as previously described (Benbernou et al. 2007). We grow up HEK293 cells in culture medium containing standard DMEM with 10% heat-inactivated fetal bovine serum, 2 mM L-glutamine, 100 units/ml penicillin, and 100 units/ml streptomycin in a humidified atmosphere (37° C., 5% CO2). After 2-3 days, the transfection process was carried out, whereby the cell culture was 70-80% confluent. The calciumphosphate method was applied to transfect DNA plasmid transiently in HEK293 cells in case of Ca-imaging method.
(§2) Calcium cations and phosphate anions created crystal precipitations coupled with DNA which could invade into the cells through endocytosis. Cells were transiently transfected with plasmid DNA which consists of pCI expression vector and PCR-amplified full-length cDNA of olfactory receptors candidates, and also Gα15, RTP1, Myr-Ric8A, HSC70, and m-Cherry as cofactors. The precipitation could be created after 15-20 min, with dropping the transfection solution on HEK293 cells. Before measuring by Ca-imaging cells were incubated 48-60 hours at 370 C, 5% CO2. Cationic liposome-mediated transfection method was applied to transfect DNA plasmid transiently in HANA3A cells in case of CRE-Luciferase and CRE-SEAP assays.
(§3) Calcium imaging of the transfected HEK293 cells was done by using chambers determinate an inverted microscope (Olympus; IX70) using a 10× objective (CPIanFL N Olympus). Fluorescence emission was determined every 4 s by using a CCD camera (Charge Coupled Device, C9100 Hamamatsu). The capillary tube which was responsible to supply odorants was generated closely above the cells. The columns filled with odorants, DMSO and ATP. Odorants were manually monitored to drop each 4-5 s to transfected cells. Solutions with drop wise form spread on HEK293 cells in 35 mm dishes.
(§4) In experiments, Fura-2 Acetoxymethylester (Fura-2/AM) was applied. The non-polar Fura2/AM is fluorescent but not yet calcium-sensitive. Once diffuses into cell plasma, Fura-2/AM is hydrolyzed to Fura-2 which is calcium-sensitive and functions as Ca2+ chelator. Regardless of the presence of calcium, Fura-2 emits at the wavelength of 510 nm. Once Fura-2 binds to free intracellular Ca2+ in cell plasma, its ratio of excitation at wavelengths of 340 nm and 380 nm is changed and correlated to the amount of intracellular Ca2+. According to this feature, the analysis of 340/380 nm excitation ratio for Fura-2 allows to quantify intracellular calcium levels.
(§5) In preparation for Ca-imaging measurements, transfected HEK293 cells were added 3 it Fura2/AM (3 μM) and incubated 30-45 min at 370 C, 5% CO2. After this step, experiments were carried out in a dark condition (Fura-2 is light-sensitive). After the incubation, medium of cell culture was replaced with 2 ml Ringer's solution.
(§6) Odorants were freshly prepared with DMSO as 1 M stocks solutions. Six mixtures (200 μM each chemical) were applied to cells sequentially (20 s each mixture/30 s Ringer). Those ORs tested with single odorants that had generated a response to odorant mixture group previously. Odorants were prepared in 100-200 μM concentration.
(§7) Ringer's solution was used for washing cells between measuring by two different odorants. Positive response was determined by the timing of the response, the strength of the response (more than twofold higher than the noise amplitude of the baseline), and the shape of the response curve (sharp rise in curve with gradual recovery). […]

In another experiment the target is T2, OR10Q1 (Homo sapiens, UniProt Q8NGQ4).
T2 construct: specific primers, which amplify the complete open reading frame; expressed in transfected cells; host or cells: HEK293
T2 sequence (Q8NGQ4 1-319): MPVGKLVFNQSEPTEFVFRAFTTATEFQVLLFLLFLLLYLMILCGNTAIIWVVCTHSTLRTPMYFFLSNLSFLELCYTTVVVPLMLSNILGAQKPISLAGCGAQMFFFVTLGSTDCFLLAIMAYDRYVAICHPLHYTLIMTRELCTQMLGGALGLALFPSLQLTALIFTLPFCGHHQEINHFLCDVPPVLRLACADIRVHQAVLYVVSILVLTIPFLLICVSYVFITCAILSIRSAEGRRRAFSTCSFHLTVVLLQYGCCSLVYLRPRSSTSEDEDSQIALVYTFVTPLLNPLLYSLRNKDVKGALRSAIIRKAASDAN
Nature of the experiment: Ca-imaging of OR10Q1-transfected HEK293 cells. As to conditions: for Response of OR10Q1 to odorant, in words: single odorants 200 μM. Set-up: key to OR10Q1 responded to odorant: ▪: 18 olfactory receptors responded to 32 odorants in related with specific anosmia. Here is the method:
as §1, §2, §3, §4, §5, §6, §7

Experiment [1] relates to HEK293 cells transfected with all cofactors and pCI plasmids without ORs. As to the kind of experiment: Ca-imaging of control HEK293 cells without OR. In short, it runs like this:
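HEK293 cells transfected by calcium phosphate with empty pCI plus Gα15, RTP1, Myr-Ric8A, HSC70 and mCherry, incubated 48–60 h, then loaded with 3 µM Fura-2/AM for 30–45 min. Odorants in Ringer's applied as mixtures at 200 µM each or singly at 100–200 µM, with 0.25 mM ATP at the end. Ca2+ followed as 340/380 nm ratio every 4 s; responses as ΔF/F0, judged by timing, amplitude above twice baseline noise and curve shape.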

For `O=C1CCCCCCCCCCCCCCO1` [Pentadecanolide, ω-cyclopentadecanolide], the “OR4K2 responded to odorant” value at OR4K2 (HEK293 cells, individual odorant 200 μM, significant response p<0.05) was “▪”. For the same compound, the “Response of OR4K2 to odorant, in words” value at OR4K2 (single odorants 200 μM) is recorded as “responded”. Moreover, the “OR10Q1 responded to odorant” value at OR10Q1 (Ca-imaging, HEK293 cells, individual odorant 200 μM, significant response p<0.05) is given as “▪”. In addition, the “Response of OR10Q1 to odorant, in words” value is “responded” on OR10Q1 (Ca-imaging); “significantly responded” on OR10Q1 (Ca-imaging, listed as Cyclopentadecanolide); “responded” on OR10Q1 (Ca-imaging, listed as Pentadecalactone). Further, the “Number of cell responses, Experiment (OR10Q1)” value at OR10Q1 (odorant 200 μM, approximately 2000 transfected cells in three times of measuring (Table 4, FIG. 5)) came out at 52. The “Response of control cells, in words” value in experiment [1] (200 μM (FIG. 13)) is recorded as “did not respond”. Further, the “Number of cell responses, Control” value in experiment [1] (odorant 200 μM, three times of measuring (Table 4, FIG. 5)) amounted to 2.
